Here are results for 6 compounds from patent US4666908A, “5-Substituted pyrazolo[4,3-d]pyrimidine-7-ones and methods of use” (Warner-Lambert Company, priority 1985, dated 1987).

The subject of one assay is Type 3 Phosphodiesterase. Put plainly: Phosphodiesterase (PDE) Inhibition, Type 3 Phosphodiesterase. The class given is biochemical, bovine (coronary arteries). Conditions: Type 3 PDE, at 10^-5 M, substrate 3H-cAMP 1.0 μM. In a few lines: (§1)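 PDEs isolated from bovine coronary artery by DEAE-cellulose chromatography, fractions typed by cAMP/cGMP hydrolysis ± calmodulin/CaCl2. Assay in 40 mM Tris-HCl (pH 8.0), 5 mM MgCl, 4 mM 2-mercaptoethanol with 1.0 μM ^3H-cyclic AMP or ^3H-cyclic GMP; final DMSO 1.25% (smooth muscle) or 2.5% (cardiac, platelet).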

In a further assay the target is T1, adenosine A1 receptor (Rattus norvegicus, UniProt P25099).
T1 construct: Whole brain minus cerebellum and brainstem from male Long Evans rats; from tissue; host or cells: whole brain minus cerebellum and brainstem, male Long Evans rats (membranes)
T1 sequence (P25099 1-326): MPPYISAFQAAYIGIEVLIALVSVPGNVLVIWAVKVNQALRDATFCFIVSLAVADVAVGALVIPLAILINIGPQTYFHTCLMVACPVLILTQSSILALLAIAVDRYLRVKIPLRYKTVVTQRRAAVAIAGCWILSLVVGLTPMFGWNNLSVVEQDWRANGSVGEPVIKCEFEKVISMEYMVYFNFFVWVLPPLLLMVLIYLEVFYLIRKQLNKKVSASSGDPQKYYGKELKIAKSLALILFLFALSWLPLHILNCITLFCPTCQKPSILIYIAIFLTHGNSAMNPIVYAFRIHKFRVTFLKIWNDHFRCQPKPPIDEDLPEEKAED
Put plainly: Adenosine Receptor Binding - A1 Receptor Affinity (RBA1), [3H]-N6-cyclohexyladenosine displacement. As to conditions: [3H]-CHA 1.0 nM, rat brain membranes, 25° C., one hour; read-out: RBA-1, IC50 for adenosine A1 receptor affinity. In a few lines: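 Rat forebrain membranes (whole brain minus cerebellum and brainstem, male Long Evans) washed in 0.05 M Tris-HCl pH 7.7, used at 20 mg/ml wet tissue. Bound [3H]-N6-cyclohexyladenosine measured by filtration and scintillation counting; Hill coefficient by log-plot regression, Bmax from Scatchard plot.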

For the next assay, the system named is Type 1 Phosphodiesterase. Description: Phosphodiesterase (PDE) Inhibition, Type 1 Phosphodiesterase. As to conditions: Type 1 PDE, at 10^-5 M; for % Inhibition of hydrolysis of 3H-cAMP: substrate 3H-cAMP 1.0 μM; for % Inhibition of hydrolysis of 3H-cGMP: substrate 3H-cGMP 1.0 μM. The class given is biochemical, bovine (coronary arteries). In a few lines: as §1

For assay [1], the system named is pentobarbital-anesthetized dog. Put plainly: In Vivo Myocardial Inotropic Activity in Anesthetized Dog (CVAD). Also noted: species or system dog (adult mongrel). As to conditions: for change in vivo at 0.3 mg/kg: 0.30 mg/kg IV. In a few lines:
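Adult mongrel dogs under pentobarbital anaesthesia (35 mg/kg IV, then 3.5 mg/kg/hour infusion), breathing spontaneously; increasing compound doses given IV via femoral vein, each over one minute. LV dP/dt max, heart rate (lead II ECG) and aortic pressure recorded by catheter transducers against ≥30 min control baseline; vehicle controls as needed.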

Where [2] appears, read: Canis lupus familiaris, iv, 0.10 mg/kg IV, read-out: Percent Change Heart Rate.
The mark [3] stands for this setting: Canis lupus familiaris, iv, 0.10 mg/kg IV, read-out: Percent Change Myocardial Contractility.
The mark [4] stands for this setting: Canis lupus familiaris, iv, 0.31 mg/kg IV, read-out: Percent Change Heart Rate.
Where [5] appears, read: Canis lupus familiaris, iv, 0.31 mg/kg IV, read-out: Percent Change Myocardial Contractility.
The mark [6] stands for this setting: Canis lupus familiaris, iv, 1.00 mg/kg IV, read-out: Percent Change Heart Rate.
Where [7] appears, read: Canis lupus familiaris, iv, 1.00 mg/kg IV, read-out: Percent Change Myocardial Contractility.
The mark [8] stands for this setting: Canis lupus familiaris, iv, 3.10 mg/kg IV, read-out: Percent Change Heart Rate.
Setting [9] is: Canis lupus familiaris, iv, 3.10 mg/kg IV, read-out: Percent Change Myocardial Contractility.

Read-outs that look alike come from different tables or passages of the source.

Turning to `Cc1nn(C)c2c(=O)[nH]c(-c3ccc([N+](=O)[O-])cc3)nc12` [Example 9, 1,3-Dimethyl-5-(4-nitrophenyl)pyrazolo[4,3-d]pyrimidine-7-one], the entries for the “% Inhibition of hydrolysis of 3H-cAMP” value in the assay with Type 3 Phosphodiesterase and in the assay with Type 1 Phosphodiesterase were 1% and 16%, respectively. For the same compound, the IC50 at adenosine A1 receptor stood at 0.88 µM. In addition, the “% Inhibition of hydrolysis of 3H-cGMP” value with Type 1 Phosphodiesterase is reported as 6%. Further, the change in vivo at 0.1 mg/kg came to 1% in assay [1] (setting [2]) and 4% in assay [1] (setting [3]). The change in vivo at 0.31 mg/kg stood at 0% in assay [1] (setting [4]) and 5% in assay [1] (setting [5]). Further, the figures for the change in vivo at 1 mg/kg in assay [1] (setting [6]) and in assay [1] (setting [7]) were -3% and 4%, respectively. Also, the change in vivo at 3.1 mg/kg in assay [1] (setting [8]) turned out to be 1%; in assay [1] (setting [9]) it was 2%.
For `Cc1nn(C)c2c(=O)[nH]c(-c3ccc(N)cc3)nc12` [Example 11, 1,3-Dimethyl-5-(4-aminophenyl)pyrazolo[4,3-d]pyrimidine-7-one], the “% Inhibition of hydrolysis of 3H-cAMP” value in the assay on Type 3 Phosphodiesterase is given as 32%; with Type 1 Phosphodiesterase, 19%. Also, at adenosine A1 receptor, the IC50 turned out to be 0.385 µM. For the same compound, in the assay on Type 1 Phosphodiesterase, the “% Inhibition of hydrolysis of 3H-cGMP” value was 15%. For the same compound, the “Percent Change Blood Pressure” value in assay [1] (0.10 mg/kg IV) is reported as 1/1; in assay [1] (0.31 mg/kg IV), 5/3; in assay [1] (1.00 mg/kg IV), 1/0. The change in vivo at 0.1 mg/kg was 1% in assay [1] (setting [2]) and 9% in assay [1] (setting [3]). The figures for the change in vivo at 0.31 mg/kg in assay [1] (setting [4]) and in assay [1] (setting [5]) were 3% and 17%, respectively. Besides, the change in vivo at 1 mg/kg was found to be 5% in assay [1] (setting [6]) and 25% in assay [1] (setting [7]). The figures for the change in vivo at 3.1 mg/kg in assay [1] (setting [8]) and in assay [1] (setting [9]) were 15% and 66%, respectively.
With `Cc1nn(C)c2c(=O)[nH]c(-c3cccc(N)c3)nc12` [Example 12, 1,3-Dimethyl-5-(3-aminophenyl)pyrazolo[4,3-d]pyrimidine-7-one], the entries for the “% Inhibition of hydrolysis of 3H-cAMP” value in the assay with Type 3 Phosphodiesterase and in the assay with Type 1 Phosphodiesterase were 33% and 6%, respectively. Also, at adenosine A1 receptor, the IC50 worked out at 1.54 µM. Moreover, in the assay on Type 1 Phosphodiesterase, the “% Inhibition of hydrolysis of 3H-cGMP” value is 9%. The change in vivo at 0.1 mg/kg in assay [1] (setting [2]) is -8%; in assay [1] (setting [3]) it was -1%. The change in vivo at 0.31 mg/kg in assay [1] (setting [4]) is -10%; in assay [1] (setting [5]), -19%. Further, the change in vivo at 1 mg/kg is -8% in assay [1] (setting [6]) and -12% in assay [1] (setting [7]).
`Cc1nn(C)c2c(=O)[nH]c(-c3cccc([N+](=O)[O-])c3)nc12` [Example 13, 1,3-Dimethyl-5-(3-nitrophenyl)pyrazolo[4,3-d]pyrimidine-7-one]: the “% Inhibition of hydrolysis of 3H-cAMP” value is on record as 50% in the assay on Type 3 Phosphodiesterase and 30% in the assay with Type 1 Phosphodiesterase. In addition, the IC50 on adenosine A1 receptor was determined as 1.2 µM. In the assay on Type 1 Phosphodiesterase, the “% Inhibition of hydrolysis of 3H-cGMP” value is 18%. Also, the change in vivo at 0.1 mg/kg in assay [1] (Canis lupus familiaris, iv, 0.10 mg/kg IV, read-out: Percent Change Blood Pressure) is -2%; in assay [1] (setting [2]), 2%; in assay [1] (setting [3]) it was 6%. Moreover, the change in vivo at 0.3 mg/kg in assay [1] (Canis lupus familiaris, iv, read-out: Percent Change Blood Pressure) is -4%; in assay [1] (Canis lupus familiaris, iv, read-out: Percent Change Heart Rate), 4%; in assay [1] (Canis lupus familiaris, iv, read-out: Percent Change Myocardial Contractility), 5%. In addition, the change in vivo at 1 mg/kg in assay [1] (Canis lupus familiaris, iv, 1.00 mg/kg IV, read-out: Percent Change Blood Pressure) is -7%; in assay [1] (setting [6]), -3%; in assay [1] (setting [7]), -7%. For the same compound, the change in vivo at 3.1 mg/kg in assay [1] (Canis lupus familiaris, iv, 3.10 mg/kg IV, read-out: Percent Change Blood Pressure) is -12%; in assay [1] (setting [8]) it was -3%; in assay [1] (setting [9]) it was 6%. For the same compound, the change in vivo at 10 mg/kg in assay [1] (Canis lupus familiaris, iv, 10.00 mg/kg IV, read-out: Percent Change Myocardial Contractility) worked out at 101%.
Regarding `Cc1nn(C)c2c(=O)[nH]c(-c3ccc(Cl)c(Cl)c3)nc12` [Example 15, 1,3-Dimethyl-5-(3,4-dichlorophenyl)pyrazolol[4,3-d]-pyrimidine-7one], the “% Inhibition of hydrolysis of 3H-cAMP” value in the assay with Type 3 Phosphodiesterase came to 0%; with Type 1 Phosphodiesterase it was 5%. Besides, the 50% inhibitory concentration (IC50) on adenosine A1 receptor came to 0.887 µM. For the same compound, the “% Inhibition of hydrolysis of 3H-cGMP” value with Type 1 Phosphodiesterase was 3%. The “Percent Change Blood Pressure” value in assay [1] (0.10 mg/kg IV) and in assay [1] (3.10 mg/kg IV) was 1/2 each time. Further, the change in vivo at 0.1 mg/kg in assay [1] (setting [2]) came to 7%; in assay [1] (setting [3]), 8%. Also, the change in vivo at 0.31 mg/kg in assay [1] (setting [4]) was 7%; in assay [1] (setting [5]), 10%. For the same compound, the change in vivo at 1 mg/kg in assay [1] (setting [6]) was found to be 9%; in assay [1] (setting [7]), 13%. The change in vivo at 3.1 mg/kg in assay [1] (setting [8]) was 12%; in assay [1] (setting [9]), 13%.
With `COc1ccc(-c2nc3c(C)nn(C)c3c(=O)[nH]2)cc1OC` [Example 16, 1,3-Dimethyl-5-(3,4-dimethoxyphenyl)pyrazolo[4,3-d]pyrimidine-7-one], the “% Inhibition of hydrolysis of 3H-cAMP” value is recorded as 17% in the assay on Type 3 Phosphodiesterase and 10% in the assay with Type 1 Phosphodiesterase. Also, at adenosine A1 receptor, the IC50 came out at 1.92 µM. Besides, the “% Inhibition of hydrolysis of 3H-cGMP” value in the assay on Type 1 Phosphodiesterase was found to be 17%. Further, the “Percent Change Blood Pressure” value is recorded as 1/3 in assay [1] (0.31 mg/kg IV) and 1/2 in assay [1] (1.00 mg/kg IV). In addition, the change in vivo at 0.1 mg/kg in assay [1] (setting [2]) was determined as 1%; in assay [1] (setting [3]), 2%. Besides, the change in vivo at 0.31 mg/kg in assay [1] (setting [4]) and in assay [1] (setting [5]) was -1% throughout. The change in vivo at 1 mg/kg in assay [1] (setting [6]) is -2%; in assay [1] (setting [7]), -1%.
